Results as given in patent publication US6497862B2, “Composition for inhibiting body odor and uses thereof” (Kabushiki Kaisha Hayashibara, priority 2000, dated 2002).

Key:
[1] = Decomposition of fatty acids by heating, 9-hexadecanoic acid (Experiment 5); details: heated at 105° C. for one hour with 100 mg test saccharide; control 38.1
Experimental: One hundred milligrams of linoleic acid or 9-hexadecanoic acid as a fatty acid, 500 mg of a cellulose powder, and 1.25 ml of 0.12 M phosphate buffer (pH 6.0) were placed in a 20-ml glass vial. To the glass vial was added 100 mg of either of trehalose, maltitol and sucrose as a test saccharide, followed by sealing with a butyl rubber cap. As a control system, there provided a glass vial with no test saccharide that differed from the test systems only in this point. These vials were heated at 105° C. for one hour. Another glass vial with no heat treatment, which contained the same ingredients as shown in the above, was provided that differed from the test systems only in that it had no heat treatment.
The above test systems with or without heat treatment and the control system were subjected to the following methyl esterification reaction and analyzed on GC to measure the content of fatty acids; To each glass vial was added 20 ml of a mixture solution of chloroform and methanol (=2:1 by volume) to extract fatty acids, and one milliliter of each resulting extract was collected in a 10-ml eggplant-shape flask, concentrated, and dried in vacuo. […]
Two microliters of each of the resulting n-hexane layers were analyzed on GC using “GAS CHROMATOGRAPH GC-14A”, a GC apparatus, commercialized by Shimadzu Corporation, Tokyo, Japan; and “CAPILLARY COLUMN FFAP”, an analysis column having an inner diameter of 0.25 mm, a length of 30 m, and a membrane thickness of 0.25 μm, commercialized by GL Sciences Inc., Tokyo, Japan, under the conditions of using helium gas as a carrier at a flow rate of 1 ml/min, at a temperature of 250° C. as a sample injection temperature, a column thermostatic bath temperature being kept at 80° C. for five minutes and then increased up to 240° C. at a rate of 5° C./min, and a hydrogen flame ionization detector for detecting fatty acids. Based on the peak area of the obtained gas chromatograms, it was calculated the content of fatty acids, i.e., linoleic acid and 9-hexadecanoic acid, before or after the heat treatment in the test- and control-systems. […]

[2] = Panel test of smell, 9-hexadecanoic acid at 37° C. (Experiment 6); parameters: key: +++: the same or higher level of odor; ++: slightly lower level of odor; +: clearly lower level of odor than that of the control system; −: odorless; details: 3-days of standing, 37° C., 9,000 lux
Excerpt: (§1) Upon the HSG samples, the level of a body-odor-like smell was examined on a panel test consisting of six professional panels; the panels directly smelled the samples from each glass vial and judged the level of the smells for each samples with test saccharides based on the following four ranks, i.e., the same or higher level of odor (+++), slightly lower level of odor (++), clearly lower level of odor (+), and odorless (−) as compared with the control system. Summing up the data from the panels, the samples tested were totally evaluated.
One hundred milligrams of 9-hexadecanoic acid as a fatty acid, 500 mg of a cellulose powder, and 1.25 ml of 0.12 M phosphate buffer (pH 6.0) were placed in a 20-ml glass vial. To the glass vial was added 100 mg of either of trehalose, maltitol and sucrose as a test saccharide, followed by sealing with a butyl rubber cap for use as a test system. As a control system, there provided a glass vial with no test saccharide that differed from the test systems only in this point. In both the test- and control-systems, they were respectively provided in doublet.
These glass vials were allowed to stand in a 37° C.-thermostatic-bath under the irradiation of 9,000 lux by a fluorescent lamp. […] After the collection of HSG, the smell from glass vials was evaluated by panel test in accordance with the method in Experiment 2.

[3] = Panel test of body-odor-like smell (KAREI-SHU), 9-hexadecanoic acid heated (Experiment 3); parameters: key: +++: the same or higher level of odor; ++: slightly lower level of odor; +: clearly lower level of odor than the control system; details: compared with control system
Excerpt: as §1
The content of 2-nonenal in HSG was measured by GC similarly as in Experiment 1 except that 9-hexadecanoic acid or palmitoleic acid was used as a fatty acid and 2-nonenal, a volatile aldehyde, was used as a standard substance. The level of body-odor-like smell, particularly with respect to KAREI-SHU, in each sample was evaluated by panel test in accordance with the method in Experiment 1.

SMILES	Decomposition percentage, 9-Hexadecanoic acid [1]	Evaluation of panel test [2]	Evaluation of panel test [3]
OC[C@H]1O[C@@](CO)(O[C@H]2O[C@H](CO)[C@@H](O)[C@H](O)[C@H]2O)[C@@H](O)[C@@H]1O [Sucrose, sucrose]	38.5%		
OC[C@@H](O)[C@@H](O[C@H]1O[C@H](CO)[C@@H](O)[C@H](O)[C@H]1O)[C@H](O)[C@@H](O)CO [Maltitol, maltitol]	14.7%	−	+
OC[C@H]1O[C@H](O[C@H]2O[C@H](CO)[C@@H](O)[C@H](O)[C@H]2O)[C@H](O)[C@@H](O)[C@@H]1O [Trehalose, trehalose]	13.2%	−	+
